Results from patent US10874743B2, “IRAK degraders and uses thereof” (Kymera Therapeutics, Inc., priority 2017, dated 2020).
Where two headings read alike, the source gives them in different places.

Experiment: Pharmacokinetics in Sprague Dawley rats (plasma and brain concentrations, PK parameters)
Assay type: in vivo
Conditions: for half-life: read-out: T1/2 (converted)
Experimental: Pharmacokinetics for I-127, I-172 and I-210 were determined in Sprague Dawley rats or CD-1 mice by dosing intravenous (IV), subcutaneous (SC) or per oral (PO) using facility SOPs and sampling plasma at required time points. Species, formulation, route of administration and time points samples are listed below for each compound.
Compounds were extracted from plasma, injected on reverse phase HPLC, eluted with a gradient from 5% to 95% acetonitrile in water and quantified by mass spectrometry with internal standard. Data are expressed in ng compound per mL of plasma.

[1] = Sprague Dawley, rat, plasma, po, 10 mg/kg, Sprague Dawley rat, po 10 mg/kg, plasma, Rat 4, read-out: Concentration Rat 4
[2] = Sprague Dawley, rat, plasma, po, 10 mg/kg, Sprague Dawley rat, po 10 mg/kg, plasma, Rat 5, read-out: Concentration Rat 5
[3] = Sprague Dawley, rat, plasma, po, 10 mg/kg, Sprague Dawley rat, po 10 mg/kg, plasma, Rat 6, read-out: Concentration Rat 6
[4] = Sprague Dawley, rat, plasma, po, 10 mg/kg, Sprague Dawley rat, po 10 mg/kg, plasma, mean of 3 rats, read-out: Concentration Mean
[5] = Sprague-Dawley, rat, plasma, iv, 3 mg/kg, Sprague Dawley rat, iv 3 mg/kg, plasma, Rat 1, read-out: Concentration Rat 1
[6] = Sprague-Dawley, rat, plasma, iv, 3 mg/kg, Sprague Dawley rat, iv 3 mg/kg, plasma, Rat 2, read-out: Concentration Rat 2
[7] = Sprague-Dawley, rat, plasma, iv, 3 mg/kg, Sprague Dawley rat, iv 3 mg/kg, plasma, Rat 3, read-out: Concentration Rat 3
[8] = Sprague-Dawley, rat, plasma, iv, 3 mg/kg, Sprague Dawley rat, iv 3 mg/kg, plasma, mean of 3 rats, read-out: Concentration Mean

- AUC(0-t) (Sprague Dawley, rat, plasma, po, 10 mg/kg, Rat (Sprague Dawley) po 10 mg/kg, Mean, read-out: AUClast): 15.2 ng·h/mL
- Cmax (Sprague Dawley, rat, plasma, po, 10 mg/kg, Rat (Sprague Dawley) po 10 mg/kg, Mean, read-out: Cmax): 2.91 ng/mL
- MRT inf (Sprague Dawley, rat, plasma, po, 10 mg/kg, Rat (Sprague Dawley) po 10 mg/kg, Mean, read-out: MRTInf_obs): 8.9 h
- half-life (Sprague Dawley, rat, plasma, po, 10 mg/kg, Rat (Sprague Dawley) po 10 mg/kg, Mean): 4.88 h
- MRT inf (Sprague Dawley, rat, plasma, po, 10 mg/kg, Rat (Sprague Dawley) po 10 mg/kg, individual Rat 4-6, read-out: MRTInf_obs): 7.27 h
- half-life (Sprague Dawley, rat, plasma, po, 10 mg/kg, Rat (Sprague Dawley) po 10 mg/kg, individual Rat 4-6): 3.72 h
- concentration at 0.25 h [1]: 0.716 ng/mL
- concentration at 0.25 h [2]: 0.359 ng/mL
- concentration at 0.25 h [3]: 0.3 ng/mL
- concentration at 0.25 h [4]: 0.458 ng/mL
- concentration at 0.5 h [1]: 0.914 ng/mL
- concentration at 0.5 h [2]: 0.366 ng/mL
- concentration at 0.5 h [3]: 0.377 ng/mL
- concentration at 0.5 h [4]: 0.552 ng/mL
- concentration at 1 h [1]: 1.39 ng/mL
- concentration at 1 h [2]: 0.438 ng/mL
- concentration at 1 h [3]: 0.426 ng/mL
- concentration at 1 h [4]: 0.75 ng/mL
- concentration at 2 h [1]: 1.55 ng/mL
- concentration at 2 h [2]: 2.39 ng/mL
- concentration at 2 h [3]: 0.737 ng/mL
- concentration at 2 h [4]: 1.56 ng/mL
- concentration at 4 h [1]: 3.5 ng/mL
- concentration at 4 h [2]: 4.02 ng/mL
- concentration at 4 h [3]: 1.2 ng/mL
- concentration at 4 h [4]: 2.91 ng/mL
- concentration at 8 h [1]: 1.66 ng/mL
- concentration at 8 h [2]: 2.46 ng/mL
- concentration at 8 h [3]: 0.71 ng/mL
- concentration at 8 h [4]: 1.61 ng/mL
- concentration at 4 h (Sprague-Dawley, rat, brain, iv, 3 mg/kg, Rat (Sprague Dawley) iv 3 mg/kg (IVB), brain, Group 1, Group 2, detected value multiplied by 3, read-out: brain Actual Conc.): 42.6 ng/g
- concentration at 4 h (Sprague-Dawley, rat, brain, iv, 3 mg/kg, Rat (Sprague Dawley) iv 3 mg/kg (IVB), brain, Mean, read-out: brain Actual Conc.): 39.9 ng/g
- MRT inf (Sprague-Dawley, rat, plasma, iv, 3 mg/kg, Sprague Dawley rat, iv 3 mg/kg, Rat 1, read-out: MRTInf_obs Rat 1): 3.26 h
- MRT inf (Sprague-Dawley, rat, plasma, iv, 3 mg/kg, Sprague Dawley rat, iv 3 mg/kg, Rat 2, read-out: MRTInf_obs Rat 2): 3.15 h
- MRT inf (Sprague-Dawley, rat, plasma, iv, 3 mg/kg, Sprague Dawley rat, iv 3 mg/kg, Rat 3, read-out: MRTInf_obs Rat 3): 2.92 h
- MRT inf (Sprague-Dawley, rat, plasma, iv, 3 mg/kg, Sprague Dawley rat, iv 3 mg/kg, mean of 3 rats, read-out: MRTInf_obs Mean): 3.11 h
- concentration at 5 min [5]: 671 ng/mL
- concentration at 5 min [6]: 652 ng/mL
- concentration at 5 min [7]: 700 ng/mL
- concentration at 5 min [8]: 674 ng/mL
- concentration at 0.25 h [5]: 396 ng/mL
- concentration at 0.25 h [6]: 418 ng/mL
- concentration at 0.25 h [7]: 469 ng/mL
- concentration at 0.25 h [8]: 428 ng/mL
- concentration at 0.5 h [5]: 307 ng/mL
- concentration at 0.5 h [6]: 292 ng/mL
- concentration at 0.5 h [7]: 312 ng/mL
- concentration at 0.5 h [8]: 304 ng/mL
- concentration at 1 h [5]: 236 ng/mL
- concentration at 1 h [6]: 232 ng/mL
- concentration at 1 h [7]: 207 ng/mL
- concentration at 1 h [8]: 225 ng/mL
- concentration at 2 h [5]: 141 ng/mL
- concentration at 2 h [6]: 159 ng/mL
- concentration at 2 h [7]: 132 ng/mL
- concentration at 2 h [8]: 144 ng/mL
- concentration at 4 h [5]: 86 ng/mL
- concentration at 4 h [6]: 77.7 ng/mL
- concentration at 4 h [7]: 64.5 ng/mL
- concentration at 4 h [8]: 76.1 ng/mL
- concentration at 8 h [5]: 27.5 ng/mL
- concentration at 8 h [6]: 24.8 ng/mL
- concentration at 8 h [7]: 20.3 ng/mL
- concentration at 8 h [8]: 24.2 ng/mL
- concentration at 24 h [5]: 0.454 ng/mL
- concentration at 24 h [6]: 0.545 ng/mL
- concentration at 24 h [7]: 0.488 ng/mL
- concentration at 24 h [8]: 0.496 ng/mL
- Tmax (plasma, Rat (Sprague Dawley) po 10 mg/kg, individual Rat 4-6): 4 h
SMILES: O=C1CCC(N2C(=O)c3cccc(NCCOCCOCCNCc4ccc(-n5cc(NC(=O)c6coc(-c7ccnc(NCC8CC8)c7)n6)c(C(F)F)n5)cc4)c3C2=O)C(=O)N1 (stereo not drawn) [I-210, 2-[2-(Cyclopropylmethylamino)-4-pyridyl]-N-[3-(difluoromethyl)-1-[4-[[2-[2-[2-[[2-(2,6-dioxo-3-piperidyl)-1,3-dioxoisoindolin-4-yl]amino]ethoxy]ethoxy]ethylamino]methyl]phenyl]pyrazol-4-yl]oxazole-4-carboxamide]
